Data as given in the kinase profiling compilation of Christmann-Franck et al. (2016).

Assays:
Details in all cases: compound 10.0 µM
ACVRL1 (human) = ACVRL1 (human) (UniProt P37023)
ADRBK2 (human) = ADRBK2 (human) (UniProt P35626)
CAMK1D (human) = CAMK1D (human) (UniProt Q8IU85)
CDK1 CCNA2 (human) = CDK1 CCNA2 (human) (UniProt P20248+P06493)
CDK9 CCNT1 (human) = CDK9 CCNT1 (human) (UniProt O60563+P50750)
DAPK2 (human) = DAPK2 (human) (UniProt Q9UIK4)
ERBB2 (human) = ERBB2 (human) (UniProt P04626)
Sequence of ERBB2 (human) (P04626 whole entry, looked up): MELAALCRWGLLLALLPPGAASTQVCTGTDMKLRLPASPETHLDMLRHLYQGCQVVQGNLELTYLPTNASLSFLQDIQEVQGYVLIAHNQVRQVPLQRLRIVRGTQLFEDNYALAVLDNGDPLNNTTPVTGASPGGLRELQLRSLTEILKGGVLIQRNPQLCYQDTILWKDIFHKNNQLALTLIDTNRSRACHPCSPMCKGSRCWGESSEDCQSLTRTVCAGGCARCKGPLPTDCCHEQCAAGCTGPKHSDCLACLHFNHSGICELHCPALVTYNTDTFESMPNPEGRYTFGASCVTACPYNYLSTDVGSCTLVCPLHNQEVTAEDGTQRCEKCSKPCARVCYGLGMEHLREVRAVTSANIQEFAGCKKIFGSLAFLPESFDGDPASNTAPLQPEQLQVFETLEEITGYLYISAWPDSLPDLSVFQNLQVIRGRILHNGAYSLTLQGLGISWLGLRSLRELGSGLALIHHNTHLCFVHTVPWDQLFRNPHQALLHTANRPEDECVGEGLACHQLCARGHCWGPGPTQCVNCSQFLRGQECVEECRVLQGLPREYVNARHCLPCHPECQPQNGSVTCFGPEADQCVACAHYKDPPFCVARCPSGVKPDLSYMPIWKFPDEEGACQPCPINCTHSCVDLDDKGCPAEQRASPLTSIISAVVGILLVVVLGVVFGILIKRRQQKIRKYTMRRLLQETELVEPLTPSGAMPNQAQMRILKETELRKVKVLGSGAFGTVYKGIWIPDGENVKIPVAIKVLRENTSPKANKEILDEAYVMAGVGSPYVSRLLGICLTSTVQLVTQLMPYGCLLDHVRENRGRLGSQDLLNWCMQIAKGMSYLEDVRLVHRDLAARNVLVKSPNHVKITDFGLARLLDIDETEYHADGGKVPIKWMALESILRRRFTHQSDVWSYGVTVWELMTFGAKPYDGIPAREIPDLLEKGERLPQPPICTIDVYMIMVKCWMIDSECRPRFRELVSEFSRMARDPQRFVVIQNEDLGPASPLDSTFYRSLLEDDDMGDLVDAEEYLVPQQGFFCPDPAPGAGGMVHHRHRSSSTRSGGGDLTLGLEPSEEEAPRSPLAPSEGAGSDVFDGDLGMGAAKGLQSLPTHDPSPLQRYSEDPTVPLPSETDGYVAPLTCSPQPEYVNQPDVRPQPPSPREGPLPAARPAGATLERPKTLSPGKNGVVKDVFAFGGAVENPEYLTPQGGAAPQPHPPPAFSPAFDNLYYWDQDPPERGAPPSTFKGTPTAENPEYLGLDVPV

FGFR3 (human) = FGFR3 (human) (UniProt P22607)
FLT1 (human) = FLT1 (human) (UniProt P17948)
Sequence of FLT1 (human) (P17948 whole entry, looked up): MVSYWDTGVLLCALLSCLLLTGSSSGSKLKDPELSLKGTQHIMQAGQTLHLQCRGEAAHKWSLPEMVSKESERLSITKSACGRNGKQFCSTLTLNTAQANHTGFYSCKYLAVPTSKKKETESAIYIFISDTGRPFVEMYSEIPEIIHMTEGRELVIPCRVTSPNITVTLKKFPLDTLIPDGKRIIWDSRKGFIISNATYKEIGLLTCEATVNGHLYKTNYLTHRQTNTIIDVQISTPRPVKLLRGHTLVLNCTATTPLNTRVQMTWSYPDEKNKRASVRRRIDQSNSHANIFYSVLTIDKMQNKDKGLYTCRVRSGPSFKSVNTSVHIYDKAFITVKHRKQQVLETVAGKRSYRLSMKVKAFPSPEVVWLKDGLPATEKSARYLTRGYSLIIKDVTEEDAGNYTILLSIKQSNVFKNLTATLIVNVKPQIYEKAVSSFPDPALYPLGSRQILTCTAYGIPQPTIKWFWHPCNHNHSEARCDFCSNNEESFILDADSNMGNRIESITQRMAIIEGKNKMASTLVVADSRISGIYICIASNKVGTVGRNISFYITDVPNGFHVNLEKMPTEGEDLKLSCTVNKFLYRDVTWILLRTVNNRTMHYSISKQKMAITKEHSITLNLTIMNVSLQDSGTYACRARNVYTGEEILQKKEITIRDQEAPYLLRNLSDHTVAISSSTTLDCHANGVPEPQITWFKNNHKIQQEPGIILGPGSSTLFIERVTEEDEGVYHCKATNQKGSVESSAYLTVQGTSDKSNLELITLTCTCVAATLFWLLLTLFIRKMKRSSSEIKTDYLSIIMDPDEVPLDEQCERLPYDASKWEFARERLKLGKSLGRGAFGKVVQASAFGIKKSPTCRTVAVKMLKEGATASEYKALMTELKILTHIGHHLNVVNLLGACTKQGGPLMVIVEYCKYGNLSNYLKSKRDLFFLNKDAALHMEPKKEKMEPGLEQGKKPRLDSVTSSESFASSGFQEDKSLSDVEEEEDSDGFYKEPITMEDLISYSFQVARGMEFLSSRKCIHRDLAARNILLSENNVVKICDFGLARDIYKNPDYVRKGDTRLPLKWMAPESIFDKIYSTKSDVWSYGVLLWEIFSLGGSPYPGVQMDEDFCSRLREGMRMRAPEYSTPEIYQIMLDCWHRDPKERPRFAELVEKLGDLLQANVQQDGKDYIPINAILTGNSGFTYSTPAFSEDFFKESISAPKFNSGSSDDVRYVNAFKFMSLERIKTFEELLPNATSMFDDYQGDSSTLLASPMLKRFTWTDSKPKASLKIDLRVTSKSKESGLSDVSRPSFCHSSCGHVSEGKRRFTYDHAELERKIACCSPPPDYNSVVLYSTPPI

GRK4 (human) = GRK4 (human) (UniProt P32298)
MAP3K8 (human) = MAP3K8 (human) (UniProt P41279)
MAPK9 (human) = MAPK9 (human) (UniProt P45984)
Sequence of MAPK9 (human) (P45984 whole entry, looked up): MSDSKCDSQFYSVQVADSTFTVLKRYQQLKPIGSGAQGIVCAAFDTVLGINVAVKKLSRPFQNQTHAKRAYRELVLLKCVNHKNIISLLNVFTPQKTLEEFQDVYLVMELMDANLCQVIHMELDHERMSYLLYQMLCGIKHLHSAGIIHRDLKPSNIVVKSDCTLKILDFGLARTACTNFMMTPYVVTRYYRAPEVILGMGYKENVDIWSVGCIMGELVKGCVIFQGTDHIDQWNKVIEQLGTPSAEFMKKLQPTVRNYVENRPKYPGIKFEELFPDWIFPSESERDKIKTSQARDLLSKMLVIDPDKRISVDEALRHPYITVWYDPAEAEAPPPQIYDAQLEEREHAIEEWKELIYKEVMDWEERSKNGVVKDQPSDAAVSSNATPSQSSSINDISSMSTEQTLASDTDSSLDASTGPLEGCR

MAPKAPK3 (human) = MAPKAPK3 (human) (UniProt Q16644)
MATK (human) = MATK (human) (UniProt P42679)
MKNK2 (human) = MKNK2 (human) (UniProt Q9HBH9)
MLTK (human) = MLTK (human) (UniProt Q9NYL2)
NUAK1 (human) = NUAK1 (human) (UniProt O60285)
PAK1 (human) = PAK1 (human) (UniProt Q13153)
PAK2 (human) = PAK2 (human) (UniProt Q13177)
PHKG2 (human) = PHKG2 (human) (UniProt P15735)
PRKACG (human) = PRKACG (human) (UniProt P22612)
PRKCB1 (human) = PRKCB1 (human) (UniProt P05771)
PRKCB2 (human) = PRKCB2 (human) (UniProt P05771)
SIK2 (human) = SIK2 (human) (UniProt Q9H0K1)
Sequence of SIK2 (human) (Q9H0K1 whole entry, looked up): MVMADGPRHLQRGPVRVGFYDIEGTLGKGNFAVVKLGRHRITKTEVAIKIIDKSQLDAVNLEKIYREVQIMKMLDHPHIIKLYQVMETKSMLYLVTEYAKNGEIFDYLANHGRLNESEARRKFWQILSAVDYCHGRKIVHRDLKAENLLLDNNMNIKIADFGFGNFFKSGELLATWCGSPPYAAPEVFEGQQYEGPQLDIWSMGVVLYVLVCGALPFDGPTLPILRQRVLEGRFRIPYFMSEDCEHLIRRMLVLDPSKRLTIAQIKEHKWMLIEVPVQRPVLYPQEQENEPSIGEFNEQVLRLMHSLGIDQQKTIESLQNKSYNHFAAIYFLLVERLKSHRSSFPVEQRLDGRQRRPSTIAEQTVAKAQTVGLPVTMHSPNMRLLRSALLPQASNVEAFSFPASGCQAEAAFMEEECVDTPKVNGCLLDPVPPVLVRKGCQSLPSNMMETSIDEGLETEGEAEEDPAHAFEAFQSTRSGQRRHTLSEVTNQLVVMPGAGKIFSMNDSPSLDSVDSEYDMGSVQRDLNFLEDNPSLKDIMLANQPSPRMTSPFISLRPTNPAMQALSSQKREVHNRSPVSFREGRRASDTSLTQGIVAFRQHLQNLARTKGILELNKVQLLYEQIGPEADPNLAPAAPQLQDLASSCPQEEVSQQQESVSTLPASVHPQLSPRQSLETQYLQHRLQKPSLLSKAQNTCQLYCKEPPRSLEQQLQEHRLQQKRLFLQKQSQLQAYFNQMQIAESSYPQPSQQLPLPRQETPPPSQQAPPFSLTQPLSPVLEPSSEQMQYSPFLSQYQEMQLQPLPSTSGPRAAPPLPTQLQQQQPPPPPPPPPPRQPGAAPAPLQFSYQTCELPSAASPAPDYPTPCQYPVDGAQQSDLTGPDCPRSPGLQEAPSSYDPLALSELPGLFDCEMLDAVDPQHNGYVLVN

SRMS (human) = SRMS (human) (UniProt Q9H3Y6)
SRPK1 (human) = SRPK1 (human) (UniProt Q96SB4)
STK38 (human) = STK38 (human) (UniProt Q15208)
Sequence of STK38 (human) (Q15208 whole entry, looked up): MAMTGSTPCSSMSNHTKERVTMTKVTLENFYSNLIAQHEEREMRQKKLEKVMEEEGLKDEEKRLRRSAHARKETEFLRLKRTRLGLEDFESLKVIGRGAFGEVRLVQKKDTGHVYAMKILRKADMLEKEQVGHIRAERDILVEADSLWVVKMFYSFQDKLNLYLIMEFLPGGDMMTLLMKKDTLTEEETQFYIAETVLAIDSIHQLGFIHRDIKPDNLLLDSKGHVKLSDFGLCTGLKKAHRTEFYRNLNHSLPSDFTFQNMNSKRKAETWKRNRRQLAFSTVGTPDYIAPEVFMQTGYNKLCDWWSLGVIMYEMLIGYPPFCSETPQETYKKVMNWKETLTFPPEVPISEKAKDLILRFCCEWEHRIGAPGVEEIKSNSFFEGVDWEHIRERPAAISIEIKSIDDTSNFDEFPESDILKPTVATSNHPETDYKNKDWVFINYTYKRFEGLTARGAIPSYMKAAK

STK39 (human) = STK39 (human) (UniProt Q9UEW8)
TBK1 (human) = TBK1 (human) (UniProt Q9UHD2)
TLK2 (human) = TLK2 (human) (UniProt Q86UE8)
TSSK1B (human) = TSSK1B (human) (UniProt Q9BXA7)
ULK3 (human) = ULK3 (human) (UniProt Q6PHR2)

Sequence of DAPK2 (human) (Q9UIK4 whole entry, looked up): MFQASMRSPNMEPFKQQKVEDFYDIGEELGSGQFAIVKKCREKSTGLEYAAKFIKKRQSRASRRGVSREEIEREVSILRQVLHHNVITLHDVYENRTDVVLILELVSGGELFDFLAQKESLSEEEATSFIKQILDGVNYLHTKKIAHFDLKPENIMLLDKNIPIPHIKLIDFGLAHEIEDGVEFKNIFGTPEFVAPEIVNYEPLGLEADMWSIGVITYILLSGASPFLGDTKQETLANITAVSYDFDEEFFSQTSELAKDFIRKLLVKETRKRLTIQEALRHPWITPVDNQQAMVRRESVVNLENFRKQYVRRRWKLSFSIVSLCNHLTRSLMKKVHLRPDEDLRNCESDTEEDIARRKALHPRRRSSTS

residual activity (ACVRL1 (human)): 98%
residual activity (ADRBK2 (human)): 105%
residual activity (CAMK1D (human)): 82%
residual activity (CDK1 CCNA2 (human)): 92.5%
residual activity (CDK9 CCNT1 (human)): 98%
residual activity (DAPK2 (human)): 106%
residual activity (ERBB2 (human)): 100%
residual activity (FGFR3 (human)): 80.5%
residual activity (FLT1 (human)): 97.5%
residual activity (GRK4 (human)): 98%
residual activity (MAP3K8 (human)): 95.5%
residual activity (MAPK9 (human)): 80.5%
residual activity (MAPKAPK3 (human)): 100%
residual activity (MATK (human)): 95.5%
residual activity (MKNK2 (human)): 98%
residual activity (MLTK (human)): 96%
residual activity (NUAK1 (human)): 102%
residual activity (PAK1 (human)): 106%
residual activity (PAK2 (human)): 97.5%
residual activity (PHKG2 (human)): 93.5%
residual activity (PRKACG (human)): 100%
residual activity (PRKCB1 (human)): 102%
residual activity (PRKCB2 (human)): 94%
residual activity (SIK2 (human)): 108%
residual activity (SRMS (human)): 93.5%
residual activity (SRPK1 (human)): 108%
residual activity (STK38 (human)): 97%
residual activity (STK39 (human)): 95.5%
residual activity (TBK1 (human)): 105%
residual activity (TLK2 (human)): 101%
residual activity (TSSK1B (human)): 102%
residual activity (ULK3 (human)): 104%
SMILES: CC[C@H](C)n1cc(C)c2c(C(=O)NCc3c(C)cc(C)[nH]c3=O)cc(-c3ccc(N4CCNCC4)nc3)cc21
